According to patent US20260355196A1, “INHIBITORS AND DEGRADERS OF PIP4K PROTEIN” (Larkspur Biosciences, Inc., priority 2023, published 2026):

Each compound was assayed against T1, PIP4K2C (Homo sapiens, UniProt Q8TBX8) (assay: Enzyme Binding Assay (KINOMEscan): active site-directed competition binding to an immobilized ligand). Details: 11-point dose response, duplicate, top concentration 5 micromolar; read-out: Pip4k2c Kd: IC50.
T1 sequence (Q8TBX8 1-421): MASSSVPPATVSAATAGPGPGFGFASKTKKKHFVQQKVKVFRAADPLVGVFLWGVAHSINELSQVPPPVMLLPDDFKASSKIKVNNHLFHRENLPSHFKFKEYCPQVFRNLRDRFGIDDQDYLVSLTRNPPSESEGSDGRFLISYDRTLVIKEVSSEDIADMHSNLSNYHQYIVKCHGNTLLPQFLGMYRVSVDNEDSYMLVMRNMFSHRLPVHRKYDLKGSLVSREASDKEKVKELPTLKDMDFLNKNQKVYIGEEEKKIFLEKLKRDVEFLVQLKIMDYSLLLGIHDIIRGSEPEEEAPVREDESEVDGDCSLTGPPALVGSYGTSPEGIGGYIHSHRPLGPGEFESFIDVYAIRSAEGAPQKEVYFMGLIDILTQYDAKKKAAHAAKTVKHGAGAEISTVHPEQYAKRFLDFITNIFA
Set-up: purchased Eurofins DiscoverX, San Diego, CA 87-0007-1094
Method: Example B-1: Enzyme Binding Assays (KINOMEscan)
PIP4K2C binding constants disclosed herein were determined using the proprietary Human PIP4K2C binding assay (Catalog number 87-0007-1094, Eurofins DiscoverX, San Diego, CA). This assay measures active site-directed competition binding to an immobilized ligand (see https://doi.org/10.1038/nbt1068, herein incorporated by reference in its entirety). Experiments were conducted using an 11-point dose response curve, in duplicate, with a top starting concentration of 5 micromolar; the Levenberg-Marquardt algorithm was used to fit a Hill equation to dose-response data to calculate IC50 values (see Table 5).

SMILES | IC50
CC(=O)N1CCC[C@H](Nc2ncc(Cl)c(-c3cccc(-c4cccc(=O)[nH]4)c3)n2)C1 [Compound 157, (S)-6-(3-(2-((1-acetylpiperidin-3-yl)amino)-5-chloropyrimidin-4-yl)phenyl)pyridin-2(1H)-one] | < 0.5 µM
NC(=O)[C@H]1CCC[C@@H](Nc2ncc(F)c(-c3cccc(N4CCCOC4=O)c3)n2)C1 (relative stereo) [Compound 227, cis-3-((5-fluoro-4-(3-(2-oxo-1,3-oxazinan-3-yl)phenyl)pyrimidin-2-yl)amino)cyclohexane-1-carboxamide] | < 0.5 µM
CC(=O)N1CCC(Nc2ncc(F)c(N3CCCC(c4ccc(=O)[nH]c4)C3)n2)CC1 (stereo not shown) [Compound 199, 5-(1-(2-((1-acetylpiperidin-4-yl)amino)-5-fluoropyrimidin-4-yl)piperidin-3-yl)pyridin-2(1H)-one] | 0.5 to 1 µM
O=C1CC(Nc2ncc(Cl)c(-c3cccc(-c4ccccc4)c3)n2)CCN1 (stereo not shown) [Compound 15, 4-((4-([1,1′-biphenyl]-3-yl)-5-chloropyrimidin-2-yl)amino)piperidin-2-one] | < 0.5 µM
CC(=O)N1CCCC(Nc2ncc(Cl)c(-c3cccc(-c4ccccc4)c3)n2)C1 (stereo not shown) [Compound 21, 1-(3-((4-([1,1′-biphenyl]-3-yl)-5-chloropyrimidin-2-yl)amino)piperidin-1-yl)ethan-1-one] | < 0.5 µM
CC(=O)N1CCC[C@H](Nc2ncc(Cl)c(N3CCCC(c4ccccc4)C3)n2)C1 (stereo partly drawn) [Compound 35, 1-((3S)-3-((5-chloro-4-(3-phenylpiperidin-1-yl)pyrimidin-2-yl)amino)piperidin-1-yl) ethan-1-one] | < 0.5 µM
CN1CCC(CCC(=O)N2CCC(Nc3ncc(Cl)c(-c4cccc(-c5ccccc5)c4)n3)CC2)CC1 [Compound 10, 1-(4-((4-([1,1′-biphenyl]-3-yl)-5-chloropyrimidin-2-yl)amino)piperidin-1-yl)-3-(1-methylpiperidin-4-yl)propan-1-one] | < 0.5 µM
CNC(=O)[C@H]1C[C@@H](Nc2ncc(Cl)c(-c3cccc(-n4ccccc4=O)c3)n2)C1 [Compound 94, cis-3-((5-chloro-4-(3-(2-oxopyridin-1 (2H)-yl)phenyl)pyrimidin-2-yl)amino)-N-methylcyclobutane-1-carboxamide] | < 0.5 µM
CC(=O)N1CCC(Nc2ncc(F)c(-c3cccc(N4CCOCC4)c3)n2)CC1 [Compound 606, 1-[4-[[5-fluoro-4-(3-morpholinophenyl)pyrimidin-2-yl]amino]-1-piperidyl]ethanone] | < 0.5 µM
CC(=O)N1CCC(CC(=O)N2CCC(Nc3ncc(Cl)c(-c4cccc(-c5ccccc5)c4)n3)CC2)CC1 [Compound 6, 1-(4-((4-([1,1′-biphenyl]-3-yl)-5-chloropyrimidin-2-yl)amino)piperidin-1-yl)-2-(1-acetylpiperidin-4-yl)ethan-1-one] | < 0.5 µM
O=C(CC1CCNCC1)N1CCC(Nc2ncc(Cl)c(-c3cccc(-c4ccccc4)c3)n2)CC1 [Compound 5, 1-(4-((4-([1,1′-biphenyl]-3-yl)-5-chloropyrimidin-2-yl)amino)piperidin-1-yl)-2-(piperidin-4-yl)ethan-1-one] | < 0.5 µM
CC(=O)N1CCC[C@H](Nc2ncc(Cl)c(N3CCC(c4ccccc4)C3)n2)C1 (stereo partly drawn) [Compound 20, 1-((3S)-3-((5-chloro-4-(3-phenylpyrrolidin-1-yl)pyrimidin-2-yl)amino)piperidin-1-yl)ethan-1-one] | 1 to 5 µM
CC(=O)N1CCC(Nc2ncc(F)c(-c3ccnc(N4CCOCC4=O)c3)n2)CC1 [Compound 628, 4-(4-(2-((1-acetylpiperidin-4-yl)amino)-5-fluoropyrimidin-4-yl)pyridin-2-yl)morpholin-3-one] | < 0.5 µM
NC(=O)[C@H]1CCC[C@@H](Nc2ncc(F)c(-c3cccc(C4COC4)c3)n2)C1 (relative stereo) [Compound 170, cis-3-((5-fluoro-4-(3-(oxetan-3-yl)phenyl)pyrimidin-2-yl)amino)cyclohexane-1-carboxamide] | < 0.5 µM
NC(=O)[C@@H]1CCC[C@H](Nc2ncc(F)c(-c3cccc(N4CCOCC4=O)n3)n2)C1 (relative stereo) [Compound 627, cis-3-((5-fluoro-4-(6-(3-oxomorpholino)pyridin-2-yl)pyrimidin-2-yl)amino)cyclohexane-1-carboxamide] | < 0.5 µM
CC(=O)N1CCC(Nc2ncc(F)c(-c3cccc(-c4cc[nH]c(=O)c4)c3)n2)CC1 [Compound 187, 4-(3-(2-((1-acetylpiperidin-4-yl)amino)-5-fluoropyrimidin-4-yl)phenyl)pyridin-2(1H)-one] | < 0.5 µM
NC(=O)[C@@H]1CCC[C@H](Nc2ncc(F)c(-c3cccc(-c4cccc(=O)[nH]4)c3)n2)C1 (relative stereo) [Compound 112, cis-3-((5-fluoro-4-(3-(6-oxo-1,6-dihydropyridin-2-yl)phenyl)pyrimidin-2-yl)amino)cyclohexane-1-carboxamide] | < 0.5 µM

The remaining lines, values ahead:

IC50 | SMILES
< 0.5 µM | CC(=O)N[C@H]1CC[C@H](Nc2ncc(F)c(-c3ccnc(C4(O)CCC4)c3)n2)CC1 [Compound 231, trans-N-(4-((5-fluoro-4-(2-(1-hydroxycyclobutyl)pyridin-4-yl)pyrimidin-2-yl)amino)cyclohexyl)acetamide]
1 to 5 µM | CNC(=O)[C@H]1CC[C@@H](Nc2ncc(Cl)c(-c3cnn(-c4cc[nH]c(=O)c4)c3)n2)CC1 [Compound 148, cis-(1s,4s)-4-((5-chloro-4-(1-(2-oxo-1,2-dihydropyridin-4-yl)-1H-pyrazol-4-yl)pyrimidin-2-yl)amino)-N-methylcyclohexane-1-carboxamide]
< 0.5 µM | CC(=O)N[C@H]1CC[C@H](Nc2ncc(Cl)c(-c3cccc(-c4ccccc4)c3)n2)CC1 [Compound 32, N-(trans-4-((4-([1,1′-biphenyl]-3-yl)-5-chloropyrimidin-2-yl)amino)cyclohexyl)acetamide]
1 to 5 µM | NC(=O)[C@H]1CCC[C@@H](Nc2ncc(Cl)c(-c3ccc(F)cc3)n2)C1 (relative stereo) [Compound 28, cis-3-((5-chloro-4-(4-fluorophenyl)pyrimidin-2-yl)amino)cyclohexane-1-carboxamide]
1 to 5 µM | CC(=O)N1CCC[C@H](Nc2ncc(Cl)c(N3CCC(c4ccccn4)C3)n2)C1 (stereo partly drawn) [Compound 29, 1-((3S)-3-((5-chloro-4-(3-(pyridin-2-yl)pyrrolidin-1-yl)pyrimidin-2-yl)amino)piperidin-1-yl)ethan-1-one]
< 0.5 µM | CC(=O)N1CCC(Nc2ncc(Cl)c(-c3cnn(-c4cc[nH]c(=O)c4)c3)n2)CC1 [Compound 120, 4-(4-(2-((1-acetylpiperidin-4-yl)amino)-5-chloropyrimidin-4-yl)-1H-pyrazol-1-yl)pyridin-2(1H)-one]
< 0.5 µM | CC(=O)N[C@H]1CC[C@H](Nc2ncc(Cl)c(-c3cc(C4CC4)[nH]n3)n2)CC1 [Compound 190, trans-N-((1r,4r)-4-((5-chloro-4-(5-cyclopropyl-1H-pyrazol-3-yl)pyrimidin-2-yl)amino)cyclohexyl)acetamide]
< 0.5 µM | CC(=O)N[C@H]1CC[C@H](Nc2ncc(Cl)c(C3CCCN(C(=O)c4ccc(F)cc4)C3)n2)CC1 (stereo partly drawn) [Compound 124, trans-N-(4-((5-chloro-4-(1-(4-fluorobenzoyl)piperidin-3-yl)pyrimidin-2-yl)amino)cyclohexyl)acetamide]
< 0.5 µM | CC(=O)N[C@H]1CC[C@H](Nc2ncc(F)c(-c3ccnc(N4CCCCC4=O)c3)n2)CC1 [Compound 257, trans-N-(-4-((5-fluoro-4-(2-(2-oxopiperidin-1-yl)pyridin-4-yl)pyrimidin-2-yl)amino)cyclohexyl)acetamide]
< 0.5 µM | O=C(C1CCNCC1)N1CCC(Nc2ncc(Cl)c(-c3cccc(-c4ccccc4)c3)n2)CC1 [Compound 2, (4-((4-([1,1′-biphenyl]-3-yl)-5-chloropyrimidin-2-yl)amino)piperidin-1-yl)(piperidin-4-yl)methanone]
< 0.5 µM | CC(=O)N1CCC(Nc2ncc(Cl)c(-c3cccc(-c4ccc(F)cc4)n3)n2)CC1 [Compound 114, 1-(4-((5-chloro-4-(6-(4-fluorophenyl)pyridin-2-yl)pyrimidin-2-yl)amino)piperidin-1-yl)ethan-1-one]
< 0.5 µM | CC(=O)N1CCC(Nc2ncc(Cl)c(-c3cccc(-c4ccc[nH]c4=O)c3)n2)CC1 [Compound 137, 3-(3-(2-((1-acetylpiperidin-4-yl)amino)-5-chloropyrimidin-4-yl)phenyl)pyridin-2(1H)-one]
0.5 to 1 µM | CC(=O)N[C@H]1CC[C@H](Nc2ncc(Cl)c(-c3ccc(=O)n(C4CC4)c3)n2)CC1 [Compound 96, trans-N-((1r,4r)-4-((5-chloro-4-(1-cyclopropyl-6-oxo-1,6-dihydropyridin-3-yl)pyrimidin-2-yl)amino)cyclohexyl)acetamide]
< 0.5 µM | CC(=O)N1CCC(Nc2ncc(Cl)c(-c3cccc(-c4ccccc4)c3)n2)CC1 [Compound 23, 1-(4-((4-([1,1′-biphenyl]-3-yl)-5-chloropyrimidin-2-yl)amino)piperidin-1-yl)ethan-1-one]
